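Following 48 hours of exposure in 96-well plates, responses at five concentrations were used to interpolate endpoints linearly. TGI: total growth inhibition.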
What was measured:
Assay in all cases: NCI anticancer screen, dose series, 48 h
OVCAR-3 ovarian = tested on: OVCAR-3 ovarian
SF-268 CNS = tested on: SF-268 CNS
A549 NSCLC = tested on: A549 NSCLC
HOP-92 NSCLC = tested on: HOP-92 NSCLC
SK-MEL-28 melanoma = tested on: SK-MEL-28 melanoma
IGROV1 ovarian = tested on: IGROV1 ovarian
HCC-2998 colon = tested on: HCC-2998 colon
LOX IMVI melanoma = tested on: LOX IMVI melanoma
M14 melanoma = tested on: M14 melanoma
SK-MEL-2 melanoma = tested on: SK-MEL-2 melanoma
TK-10 renal = tested on: TK-10 renal
SF-539 CNS = tested on: SF-539 CNS
NCI-H522 lung = tested on: NCI-H522 lung
786-0 renal = tested on: 786-0 renal
RXF 393 renal = tested on: RXF 393 renal
NCI/ADR-RES ovarian = tested on: NCI/ADR-RES ovarian
SN12C renal = tested on: SN12C renal
SR leukemia = tested on: SR leukemia
CCRF-CEM leukemia = tested on: CCRF-CEM leukemia
MDA-MB-435 = tested on: MDA-MB-435
SW-620 colon = tested on: SW-620 colon
DU-145 prostate = tested on: DU-145 prostate
COLO 205 colon = tested on: COLO 205 colon
OVCAR-5 ovarian = tested on: OVCAR-5 ovarian
HT29 colon = tested on: HT29 colon
UO-31 renal = tested on: UO-31 renal
MDA-N = tested on: MDA-N
NCI-H23 lung = tested on: NCI-H23 lung
MOLT-4 leukemia = tested on: MOLT-4 leukemia
KM12 colon = tested on: KM12 colon
MDA-MB-231 breast = tested on: MDA-MB-231 breast
BT-549 breast = tested on: BT-549 breast
NCI-H460 lung = tested on: NCI-H460 lung
T-47D breast = tested on: T-47D breast
SF-295 CNS = tested on: SF-295 CNS
OVCAR-4 ovarian = tested on: OVCAR-4 ovarian
RPMI-8226 leukemia = tested on: RPMI-8226 leukemia
HL-60(TB) leukemia = tested on: HL-60(TB) leukemia
SNB-75 CNS = tested on: SNB-75 CNS
UACC-62 melanoma = tested on: UACC-62 melanoma
A498 renal = tested on: A498 renal
PC-3 prostate = tested on: PC-3 prostate
SK-OV-3 ovarian = tested on: SK-OV-3 ovarian
MALME-3M melanoma = tested on: MALME-3M melanoma
ACHN renal = tested on: ACHN renal
K-562 leukemia = tested on: K-562 leukemia
OVCAR-8 ovarian = tested on: OVCAR-8 ovarian
SK-MEL-5 melanoma = tested on: SK-MEL-5 melanoma
NCI-H226 lung = tested on: NCI-H226 lung
HCT-116 colon = tested on: HCT-116 colon
SNB-19 CNS = tested on: SNB-19 CNS
MCF7 breast = tested on: MCF7 breast
HOP-62 NSCLC = tested on: HOP-62 NSCLC
EKVX NSCLC = tested on: EKVX NSCLC
HCT-15 colon = tested on: HCT-15 colon
UACC-257 melanoma = tested on: UACC-257 melanoma
HS 578T breast = tested on: HS 578T breast
U251 CNS = tested on: U251 CNS
CAKI-1 renal = tested on: CAKI-1 renal

Measured: TGI

OCCCc1ccc2c(c1)[C@H](CO)[C@@H](c1ccc(O)cc1)O2
29.2 µM: MALME-3M melanoma
30.4 µM: OVCAR-4 ovarian
> 100 µM: OVCAR-3 ovarian | SF-268 CNS | A549 NSCLC | HOP-92 NSCLC | SK-MEL-28 melanoma | IGROV1 ovarian | LOX IMVI melanoma | M14 melanoma | SK-MEL-2 melanoma | TK-10 renal | SF-539 CNS | NCI-H522 lung | 786-0 renal | RXF 393 renal | NCI/ADR-RES ovarian | SN12C renal | SR leukemia | CCRF-CEM leukemia | MDA-MB-435 | SW-620 colon | DU-145 prostate | COLO 205 colon | OVCAR-5 ovarian | HT29 colon | UO-31 renal | MDA-N | NCI-H23 lung | MOLT-4 leukemia | KM12 colon | MDA-MB-231 breast | NCI-H460 lung | T-47D breast | SF-295 CNS | RPMI-8226 leukemia | HL-60(TB) leukemia | SNB-75 CNS | UACC-62 melanoma | A498 renal | PC-3 prostate | SK-OV-3 ovarian | ACHN renal | K-562 leukemia | OVCAR-8 ovarian | NCI-H226 lung | HCT-116 colon | SNB-19 CNS | MCF7 breast | HOP-62 NSCLC | EKVX NSCLC | HCT-15 colon | UACC-257 melanoma | U251 CNS
32.7 µM: SK-MEL-5 melanoma
47.8 µM: BT-549 breast
37.3 µM: HCC-2998 colon
38.6 µM: HS 578T breast

COc1c2occc2c(N)c2ccc(=O)oc12
69.1 µM: SNB-75 CNS
> 100 µM: OVCAR-3 ovarian | SF-268 CNS | A549 NSCLC | CAKI-1 renal | HOP-92 NSCLC | SK-MEL-28 melanoma | IGROV1 ovarian | HCC-2998 colon | LOX IMVI melanoma | M14 melanoma | SK-MEL-2 melanoma | TK-10 renal | SF-539 CNS | NCI-H522 lung | 786-0 renal | RXF 393 renal | NCI/ADR-RES ovarian | SN12C renal | SR leukemia | CCRF-CEM leukemia | MDA-MB-435 | SW-620 colon | DU-145 prostate | COLO 205 colon | OVCAR-5 ovarian | HT29 colon | UO-31 renal | MDA-N | NCI-H23 lung | MOLT-4 leukemia | KM12 colon | MDA-MB-231 breast | BT-549 breast | NCI-H460 lung | T-47D breast | SF-295 CNS | OVCAR-4 ovarian | RPMI-8226 leukemia | HL-60(TB) leukemia | UACC-62 melanoma | A498 renal | PC-3 prostate | MALME-3M melanoma | ACHN renal | K-562 leukemia | OVCAR-8 ovarian | SK-MEL-5 melanoma | NCI-H226 lung | HCT-116 colon | SNB-19 CNS | MCF7 breast | HOP-62 NSCLC | EKVX NSCLC | HCT-15 colon | UACC-257 melanoma | HS 578T breast | U251 CNS

Source: PubChem BioAssay (NCI)
